Data taken from patent US9145351B2, “Azole derivatives, methods for producing the same, intermediate thereof, agro-horticultural agents” (KUREHA CORPORATION, priority 2009, dated 2015).

Assays:
Type in all cases: cell-based
Fusarium oxysporum = assay: Plate medium fungicidal assay, cucumber fusarium wilt F.c (Experimental Example 5)
Experimental: (§1) In this Experimental Example, the fungicidal effects of the inventive compounds on various phytopathogenic fungi for plants and hazardous microorganism for industrial materials were examined by the methods described below. Each inventive compound was dissolved in 2 ml of dimethyl sulfoxide. 0.6 ml of this solution was added to 60 nil of a PDA medium (potato dextrose agar medium) at about 60 degrees C., which was mixed thoroughly in a 100-ml conical flask, and poured into a dish, where it was solidified, thereby obtaining a plate medium containing the inventive compound at 50 mg/L and 5 mg/L. On the other hand, a subject microorganism previously cultured on a plate medium was cut out using a cork borer whose diameter was 4 mm, and inoculated to the test compound-containing plate medium described above. […] The growth degree of the microorganism on the test compound-containing plate medium thus observed was compared with the growth degree of the microorganism in the untreated group, and % mycelial growth inhibition was calculated by the following equation. R=100(dc−dt)/dc wherein R=% mycelial extension inhibition, dc=flora diameter in untreated plate, dt=flora diameter in treated plate. The results obtained as described above were evaluated as one of the 5 grades according to the following criteria. […] Cucumber fusarium wilt (Fusarium oxysporum) F.c

Rhynchosporium secalis = assay: Plate medium fungicidal assay, barley leaf blotch R.sec (Experimental Example 5)
Experimental: as §1, with “Barley leaf blotch (Rhynchosporium secalis) R.sec” for “Cucumber fusarium wilt (Fusarium oxysporum) F.c”

[1] = test system: Pseudocercoporella herpotrichoides; assay: Plate medium fungicidal assay, wheat eye spot P.h (Experimental Example 5)
Experimental: as §1, with “Wheat eye spot (Pseudocercoporella herpotrichoides) P.h” for “Cucumber fusarium wilt (Fusarium oxysporum) F.c”

Pyricularia oryzae = assay: microbe, parasite or virus in culture
Alternaria alternata = assay: Plate medium fungicidal assay, Alternaria blotch A.m (Experimental Example 5)
Experimental: as §1, with “Alternaria blotch (Alternaria alternata) A.m” for “Cucumber fusarium wilt (Fusarium oxysporum) F.c”

[2] = plate medium containing compound at 5 mg/L
[3] = plate medium containing compound at 50 mg/L

## CC[C@]1(CCl)CC[C@@H](Cc2ccccc2)[C@]1(O)Cn1cncn1 (relative stereo) [Compound I-97]
Fusarium oxysporum; [2]
  Growth inhibition grade, F.c: 5 (% Mycerial growth inhibition of 80% or higher)
Fusarium oxysporum; [3]
  Growth inhibition grade, F.c: 5 (% Mycerial growth inhibition of 80% or higher)
Rhynchosporium secalis; [2]
  Growth inhibition grade, R.sec: 5 (% Mycerial growth inhibition of 80% or higher)
Rhynchosporium secalis; [3]
  Growth inhibition grade, R.sec: 5 (% Mycerial growth inhibition of 80% or higher)
[1]; [2]
  Growth inhibition grade, P.h: 5 (% Mycerial growth inhibition of 80% or higher)
[1]; [3]
  Growth inhibition grade, P.h: 5 (% Mycerial growth inhibition of 80% or higher)
Pyricularia oryzae; [2]
  Growth inhibition grade, P.o: 5 (% Mycerial growth inhibition of 80% or higher)
Pyricularia oryzae; [3]
  Growth inhibition grade, P.o: 5 (% Mycerial growth inhibition of 80% or higher)
Alternaria alternata; [2]
  Growth inhibition grade, A.m: 4 (% Mycerial growth inhibition of less than 80 to 60% or higher)
Alternaria alternata; [3]
  Growth inhibition grade, A.m: 5 (% Mycerial growth inhibition of 80% or higher)

## C[C@]1(CCl)CC[C@@H](Cc2ccccc2F)[C@]1(O)Cn1cncn1 (relative stereo) [Compound I-86]
Fusarium oxysporum; [2]
  Growth inhibition grade, F.c: 5 (% Mycerial growth inhibition of 80% or higher)
Fusarium oxysporum; [3]
  Growth inhibition grade, F.c: 5 (% Mycerial growth inhibition of 80% or higher)
Rhynchosporium secalis; [2]
  Growth inhibition grade, R.sec: 5 (% Mycerial growth inhibition of 80% or higher)
Rhynchosporium secalis; [3]
  Growth inhibition grade, R.sec: 5 (% Mycerial growth inhibition of 80% or higher)
[1]; [2]
  Growth inhibition grade, P.h: 5 (% Mycerial growth inhibition of 80% or higher)
[1]; [3]
  Growth inhibition grade, P.h: 5 (% Mycerial growth inhibition of 80% or higher)
Pyricularia oryzae; [2]
  Growth inhibition grade, P.o: 5 (% Mycerial growth inhibition of 80% or higher)
Pyricularia oryzae; [3]
  Growth inhibition grade, P.o: 5 (% Mycerial growth inhibition of 80% or higher)
Alternaria alternata; [2]
  Growth inhibition grade, A.m: 4 (% Mycerial growth inhibition of less than 80 to 60% or higher)
Alternaria alternata; [3]
  Growth inhibition grade, A.m: 5 (% Mycerial growth inhibition of 80% or higher)

## C[C@@]1(CCl)CC[C@@H](Cc2ccc(Cl)cc2)[C@]1(O)Cn1cncn1 (racemic) [Compound I-101]
Fusarium oxysporum; [2]
  Growth inhibition grade, F.c: 5 (% Mycerial growth inhibition of 80% or higher)
Fusarium oxysporum; [3]
  Growth inhibition grade, F.c: 5 (% Mycerial growth inhibition of 80% or higher)
Rhynchosporium secalis; [2]
  Growth inhibition grade, R.sec: 5 (% Mycerial growth inhibition of 80% or higher)
Rhynchosporium secalis; [3]
  Growth inhibition grade, R.sec: 5 (% Mycerial growth inhibition of 80% or higher)
[1]; [2]
  Growth inhibition grade, P.h: 5 (% Mycerial growth inhibition of 80% or higher)
[1]; [3]
  Growth inhibition grade, P.h: 5 (% Mycerial growth inhibition of 80% or higher)
Pyricularia oryzae; [2]
  Growth inhibition grade, P.o: 5 (% Mycerial growth inhibition of 80% or higher)
Pyricularia oryzae; [3]
  Growth inhibition grade, P.o: 5 (% Mycerial growth inhibition of 80% or higher)
Alternaria alternata; [2]
  Growth inhibition grade, A.m: 5 (% Mycerial growth inhibition of 80% or higher)
Alternaria alternata; [3]
  Growth inhibition grade, A.m: 5 (% Mycerial growth inhibition of 80% or higher)

## C[C@]1(CCl)CC[C@@H](Cc2ccc(F)cc2F)[C@]1(O)Cn1cncn1 (relative stereo) [Compound I-88]
Fusarium oxysporum; [2]
  Growth inhibition grade, F.c: 5 (% Mycerial growth inhibition of 80% or higher)
Fusarium oxysporum; [3]
  Growth inhibition grade, F.c: 5 (% Mycerial growth inhibition of 80% or higher)
Rhynchosporium secalis; [2]
  Growth inhibition grade, R.sec: 5 (% Mycerial growth inhibition of 80% or higher)
Rhynchosporium secalis; [3]
  Growth inhibition grade, R.sec: 5 (% Mycerial growth inhibition of 80% or higher)
[1]; [2]
  Growth inhibition grade, P.h: 5 (% Mycerial growth inhibition of 80% or higher)
[1]; [3]
  Growth inhibition grade, P.h: 5 (% Mycerial growth inhibition of 80% or higher)
Pyricularia oryzae; [2]
  Growth inhibition grade, P.o: 5 (% Mycerial growth inhibition of 80% or higher)
Pyricularia oryzae; [3]
  Growth inhibition grade, P.o: 5 (% Mycerial growth inhibition of 80% or higher)
Alternaria alternata; [2]
  Growth inhibition grade, A.m: 4 (% Mycerial growth inhibition of less than 80 to 60% or higher)
Alternaria alternata; [3]
  Growth inhibition grade, A.m: 5 (% Mycerial growth inhibition of 80% or higher)

## C[C@]1(CCl)CC[C@H](Cc2cccc(Cl)c2)[C@]1(O)Cn1cncn1 (relative stereo) [Compound I-374]
Fusarium oxysporum; plate medium, 5 mg/L
  Growth inhibition grade, F.c: 5 (% Mycerial growth inhibition of 80% or higher)
Fusarium oxysporum; plate medium, 50 mg/L
  Growth inhibition grade, F.c: 5 (% Mycerial growth inhibition of 80% or higher)
Rhynchosporium secalis; plate medium, 5 mg/L
  Growth inhibition grade, R.sec: 5 (% Mycerial growth inhibition of 80% or higher)
Rhynchosporium secalis; plate medium, 50 mg/L
  Growth inhibition grade, R.sec: 5 (% Mycerial growth inhibition of 80% or higher)
[1]; plate medium, 5 mg/L
  Growth inhibition grade, P.h: 5 (% Mycerial growth inhibition of 80% or higher)
[1]; plate medium, 50 mg/L
  Growth inhibition grade, P.h: 5 (% Mycerial growth inhibition of 80% or higher)
Pyricularia oryzae; plate medium, 5 mg/L
  Growth inhibition grade, P.o: 5 (% Mycerial growth inhibition of 80% or higher)
Pyricularia oryzae; plate medium, 50 mg/L
  Growth inhibition grade, P.o: 5 (% Mycerial growth inhibition of 80% or higher)
Alternaria alternata; plate medium, 5 mg/L
  Growth inhibition grade, A.m: 4 (% Mycerial growth inhibition of less than 80 to 60% or higher)
Alternaria alternata; plate medium, 50 mg/L
  Growth inhibition grade, A.m: 5 (% Mycerial growth inhibition of 80% or higher)

## C[C@@]1(CCl)CC[C@@H](Cc2cccc(Cl)c2)[C@]1(O)Cn1cncn1 (relative stereo) [Compound I-174]
Fusarium oxysporum; plate medium, 5 mg/L
  Growth inhibition grade, F.c: 5 (% Mycerial growth inhibition of 80% or higher)
Fusarium oxysporum; plate medium, 50 mg/L
  Growth inhibition grade, F.c: 5 (% Mycerial growth inhibition of 80% or higher)
Rhynchosporium secalis; plate medium, 5 mg/L
  Growth inhibition grade, R.sec: 5 (% Mycerial growth inhibition of 80% or higher)
Rhynchosporium secalis; plate medium, 50 mg/L
  Growth inhibition grade, R.sec: 5 (% Mycerial growth inhibition of 80% or higher)
[1]; plate medium, 5 mg/L
  Growth inhibition grade, P.h: 5 (% Mycerial growth inhibition of 80% or higher)
[1]; plate medium, 50 mg/L
  Growth inhibition grade, P.h: 5 (% Mycerial growth inhibition of 80% or higher)
Pyricularia oryzae; plate medium, 5 mg/L
  Growth inhibition grade, P.o: 5 (% Mycerial growth inhibition of 80% or higher)
Pyricularia oryzae; plate medium, 50 mg/L
  Growth inhibition grade, P.o: 5 (% Mycerial growth inhibition of 80% or higher)
Alternaria alternata; plate medium, 5 mg/L
  Growth inhibition grade, A.m: 5 (% Mycerial growth inhibition of 80% or higher)
Alternaria alternata; plate medium, 50 mg/L
  Growth inhibition grade, A.m: 5 (% Mycerial growth inhibition of 80% or higher)

## C[C@]1(CCl)CC[C@@H](Cc2ccc(-c3ccccc3)cc2)[C@]1(O)Cn1cncn1 (relative stereo) [Compound I-82]
Fusarium oxysporum; [2]
  Growth inhibition grade, F.c: 5 (% Mycerial growth inhibition of 80% or higher)
Fusarium oxysporum; [3]
  Growth inhibition grade, F.c: 5 (% Mycerial growth inhibition of 80% or higher)
Rhynchosporium secalis; [2]
  Growth inhibition grade, R.sec: 5 (% Mycerial growth inhibition of 80% or higher)
Rhynchosporium secalis; [3]
  Growth inhibition grade, R.sec: 5 (% Mycerial growth inhibition of 80% or higher)
[1]; [2]
  Growth inhibition grade, P.h: 5 (% Mycerial growth inhibition of 80% or higher)
[1]; [3]
  Growth inhibition grade, P.h: 5 (% Mycerial growth inhibition of 80% or higher)
Pyricularia oryzae; [2]
  Growth inhibition grade, P.o: 5 (% Mycerial growth inhibition of 80% or higher)
Pyricularia oryzae; [3]
  Growth inhibition grade, P.o: 5 (% Mycerial growth inhibition of 80% or higher)
Alternaria alternata; [2]
  Growth inhibition grade, A.m: 5 (% Mycerial growth inhibition of 80% or higher)
Alternaria alternata; [3]
  Growth inhibition grade, A.m: 5 (% Mycerial growth inhibition of 80% or higher)
